Data set [1] has as its system Trypanosoma brucei rhodesiense (T.b.r.). Nature of the data set: In vitro activity vs. T. b. rhodesiense. Type of data set: cell-based.
Data set [2] has as its system Plasmodium falciparum (P.f.). Nature of the data set: In vitro activity vs. P. falciparum. Type of data set: cell-based.
In data set [3] the test system is virulent STIP900 strain of T.b.r. Nature of the data set: Mouse model of T.b.r. infection. Type of data set: in vivo.
Setting [4] is: read-out: IC-50 values versus Trypanosoma brucei rhodesiense (T.b.r.).
Setting [5] is: read-out: IC-50 values versus Plasmodium falciparum (p.f.).

Structures can show the parent of a compound that is named as a salt. Where two headings read alike, the source gives them in different places. Some results are limits rather than exact numbers.

As a reminder, the melting point is the temperature of the solid-liquid transition.

Molecule `CC(=O)O.N=C(N)c1ccc(-c2ccc(-c3nc4cc(C(=N)N)ccc4[nH]3)cc2)nc1` [Compound 44, 2-[4-(5-carbamimidoyl-pyridin-2-yl)-phenyl]-1H-benzimidazole-5-carboxamidine acetate salt] returned a melting point of 240 to 241 °C. In data set [1] (Table 2, read-out: T.b.r. IC50), the IC50 came to 41 nM. The IC50 in data set [2] (Table 2, read-out: P.f. IC50) amounted to 7 nM.

The molecule `CC(=O)O.N=C(N)c1ccc(-c2ccc(-c3nc4cc(C(=N)N)ccc4[nH]3)cc2)c(O)c1` [Compound 48, 2-(4′-carbamimidoyl-2′-hydroxy-biphenyl-4-yl)-1H-benzimidazole-5-carboxamidine acetate salt] returned a melting point of 220 to 222 °C. The IC50 in data set [1] (Table 2, read-out: T.b.r. IC50) worked out at 27 nM. For the same molecule, in data set [2] (Table 2, read-out: P.f. IC50), the IC50 stood at 19.1 nM.

`CC(=O)O.COc1ccc(-c2ccc(C(=N)N)cn2)cc1-c1nc2cc(C(=N)N)ccc2[nH]1` [Compound 36, 2-[5-(5-carbamimidoyl-pyridin-2-yl)-2-methoxyphenyl]-1H-benzimidazole-5-carboxamidine acetate salt]: the melting point is 231 to 232 °C (dec.). Moreover, in data set [1] (Table 1, read-out: T.b.r. IC50), the IC50 is 14 nM. Moreover, the IC50 in data set [1] (setting [4]) was less than 20 nM. Also, in data set [2] (Table 1, read-out: P.f. IC50), the IC50 amounted to 364 nM.

For `N=C(NO)c1cccc(-c2ccc(O)c(-c3nc4cc(C(=N)NO)ccc4[nH]3)c2)c1` [Compound 7, N-hydroxy-2-[4-hydroxy-3′-(N-hydroxycarbamimidoyl)-biphenyl-3-yl]-1H-benzimidazole-5-carboxamidine], the melting point was 352 to 355 °C.

Consider `CC(=O)O.N=C(N)c1ccc2[nH]c(-c3ccc(-c4ccc(C(=N)N)c(F)c4)cc3)nc2c1` [Compound 32, 2-(4′-carbamimidoyl-3′-fluoro-biphenyl-4-yl)-1H-benzimidazole-5-carboxamidine acetate salt], for which the melting point is 210 to 212 °C (dec.). In data set [1] (Table 2, read-out: T.b.r. IC50), the IC50 is 35 nM. Further, the IC50 in data set [2] (Table 2, read-out: P.f. IC50) stood at 1.3 nM. In addition, the IC50 in data set [2] (setting [5]) is less than 3 nM.

With `CC(=O)O.N=C(N)c1cccc(-c2ccc(O)c(-c3nc4cc(C(=N)N)ccc4[nH]3)c2)c1` [Compound 8, 2-(3′-carbamimidoyl-4-hydroxy-biphenyl-3-yl)-1H-benzimidazole-5-carboxamidine acetate salt], the melting point was 208 to 209 °C (dec.). For the same molecule, the IC50 in data set [1] (Table 1, read-out: T.b.r. IC50) amounted to 213 nM. The IC50 in data set [2] (Table 1, read-out: P.f. IC50) was found to be 34 nM.

As to `N=C(NO)c1ccc(-c2cccc(-c3nc4cc(C(=N)NO)ccc4[nH]3)c2)nc1` [Compound 39, N-hydroxy-2-{3-[5-(N-hydroxycarbamimidoyl)-pyridin-2-yl]-phenyl}-1H-benzimidazole-5-carboxamidine], the melting point was 295 to 297 °C (dec.).

For `N=C(N)c1ccc(-c2ccc(-c3nc4ccc(C(=N)N)cc4[nH]3)cc2)cc1` [Compound 56], the IC50 in data set [1] (Table 2, read-out: T.b.r. IC50) is 7.7 nM; in data set [1] (setting [4]), less than 20 nM; in data set [2] (Table 2, read-out: P.f. IC50), 0.5 nM; in data set [2] (setting [5]) it was less than 3 nM.

Consider `CC(=O)O.N=C(N)c1ccc(-c2cccc(-c3nc4cc(C(=N)N)ccc4[nH]3)c2O)cc1` [Compound 16, 2-(4′-carbamimidoyl-2-hydroxy-biphenyl-3-yl)-1H-benzimidazole-5-carboxamidine acetate salt], for which the melting point was 228 to 229.5 °C (dec.). Moreover, the “cure of the virulent STIP900 strain of T.b.r. in a mouse model” value in data set [3] is “cure”. Moreover, the IC50 in data set [1] (Table 1, read-out: T.b.r. IC50) was found to be 17 nM. For the same molecule, the IC50 in data set [1] (setting [4]) was less than 20 nM. In data set [2] (Table 1, read-out: P.f. IC50), the IC50 amounted to 131 nM.

With `CC(=O)O.COc1cc(-c2ccc(C(=N)N)cc2)cc(-c2nc3cc(C(=N)N)ccc3[nH]2)c1O` [Compound 12, 2-(4′-carbamimidoyl-4-hydroxy-5-methoxy-biphenyl-3-yl)-1H-benzimidazole-5-carboxamidine acetate salt], the melting point was 230 to 231 °C (dec.). Further, the IC50 in data set [1] (Table 1, read-out: T.b.r. IC50) is 31 nM. Also, the IC50 in data set [2] (Table 1, read-out: P.f. IC50) came to 131 nM.

As to `CC(=O)O.COc1ccc(-c2ccc(C(=N)N)cc2)cc1-c1nc2cc(C(=N)N)ccc2[nH]1` [Compound 20, 2-(4′-carbamimidoyl-4-methoxy-biphenyl-3-yl)-1H-benzimidazole-5-carboxamidine acetate salt], the melting point fell in the range of 220 to 221 °C. Further, in data set [1] (Table 1, read-out: T.b.r. IC50), the IC50 is 53 nM. In addition, the IC50 in data set [2] (Table 1, read-out: P.f. IC50) was found to be 40 nM.

Take `CC(=O)O.N=C(N)c1ccc(-c2cccc(-c3nc4cc(C(=N)N)ccc4[nH]3)c2)nc1` [Compound 40, 2-[3-(5-Carbamimidoyl-pyridin-2-yl)-phenyl]-1H-benzimidazole-5-carboxamidine acetate salt]: the melting point was 198 to 200 °C (dec.). The “cure of the virulent STIP900 strain of T.b.r. in a mouse model” value in data set [3] is reported as “cure”. Further, the IC50 in data set [1] (Table 1, read-out: T.b.r. IC50) was determined as 15 nM. Besides, the IC50 in data set [1] (setting [4]) is less than 20 nM. Also, the IC50 in data set [2] (Table 1, read-out: P.f. IC50) amounted to 96 nM.

Take `COc1cc(-c2ccc(C(=N)NO)cc2)cc(-c2nc3cc(C(=N)NO)ccc3[nH]2)c1O` [Compound 11, N-hydroxy-2-[4-hydroxy-4′-(N-hydroxycarbamimidoyl)-5-methoxy-biphenyl-3-yl]-1H-benzimidazole-5-carboxamidine]: the melting point is 319 to 321 °C.

Regarding `CC(=O)O.Cc1cc(C(=N)N)ccc1-c1ccc(-c2nc3cc(C(=N)N)ccc3[nH]2)cc1` [Compound 52, 2-(4′-carbamimidoyl-2′-methylbiphenyl-4-yl)-1H-benzimidazole-5-carboxamidine acetate salt], the melting point fell in the range of 193 to 195 °C. Besides, the IC50 in data set [1] (Table 2, read-out: T.b.r. IC50) was 6 nM. The IC50 in data set [1] (setting [4]) is less than 20 nM.

In the case of `N=C(NO)c1ccc(-c2ccc(-c3nc4cc(C(=N)NO)ccc4[nH]3)cc2)c(OCc2ccccc2)c1` [Compound 47, 2-[2′-benzyloxy-4′-(N-hydroxycarbamimidoyl)-biphenyl-4-yl]-N-hydroxy-1H-benzimidazole-5-carboxamidine], the melting point was 250 to 253 °C (dec.).

Molecule `N=C(NO)c1ccc(-c2cccc(-c3nc4cc(C(=N)NO)ccc4[nH]3)c2)cc1` [Compound 23, N-hydroxy-2-[4′-(N-hydroxycarbamimidoyl)-biphenyl-3-yl]-1H-benzimidazole-5-carboxamidine] came in with a melting point of 317 to 319 °C.

Regarding `N=C(N)c1ccc(-c2ccc(O)c(-c3nc4cc(C(=N)N)ccc4[nH]3)c2)cc1` [Compound 4, 2-(4′-carbamimidoyl-4-hydroxy-biphenyl-3-yl)-1H-benzimidazole-5-carboxamidine acetate salt], the IC50 was 27 nM in data set [1] (Table 1, read-out: T.b.r. IC50); 2.1 nM in data set [2] (Table 1, read-out: P.f. IC50); less than 3 nM in data set [2] (setting [5]).

In the case of `N=C(N)c1ccc(-c2cccc(-c3nc4cc(C(=N)N)ccc4[nH]3)c2)cc1` [Compound 24, 2-(4′-carbamimidoyl-biphenyl-3-yl)-1H-benzimidazole-5-carboxamidine acetate salt], the IC50 in data set [1] (Table 1, read-out: T.b.r. IC50) was 4.4 nM; in data set [1] (setting [4]), less than 20 nM; in data set [2] (Table 1, read-out: P.f. IC50), 27.5 nM.

`Cc1cc(C(=N)NO)ccc1-c1cccc(-c2nc3cc(C(=N)NO)ccc3[nH]2)c1` [Compound 27, N-hydroxy-2-[4′-(N-hydroxycarbamimidoyl)-2′-methyl-biphenyl-3-yl]-1H-benzimidazole-5-carboxamidine]: the melting point is 295 to 297 °C (dec.).

For the molecule `CC(=O)O.Cc1cc(C(=N)N)ccc1-c1cccc(-c2nc3cc(C(=N)N)ccc3[nH]2)c1` [Compound 28, 2-(4′-carbamimidoyl-2′-methyl-biphenyl-3-yl)-1H-benzimidazole-5-carboxamidine acetate salt], the melting point was in the range of 201 to 203 °C. Also, the IC50 in data set [1] (Table 1, read-out: T.b.r. IC50) came out at 23 nM. The IC50 in data set [2] (Table 1, read-out: P.f. IC50) is 55 nM.

As for `N=C(NO)c1ccc(-c2ccc(-c3nc4cc(C(=N)NO)ccc4[nH]3)cc2)nc1` [Compound 43, N-hydroxy-2-{4-[5-(N-hydroxycarbamimidoyl)-pyridin-2-yl]-phenyl}-1H-benzimidazole-5-carboxamidine], the melting point was 305 to 308 °C (dec.).

`Cc1cc(C(=N)NO)ccc1-c1ccc(-c2nc3cc(C(=N)NO)ccc3[nH]2)cc1` [Compound 51, N-hydroxy-2-[4′-(N-hydroxycarbamimidoyl)-2′-methyl-biphenyl-4-yl]-1H-benzimidazole-5-carboxamidine] displayed a melting point of 300 to 302 °C.

In the case of `N=C(NO)c1ccc(-c2ccc(-c3nc4cc(C(=N)NO)ccc4[nH]3)c(F)c2)cc1` [Compound 31, 2-[3-fluoro-4′-(N-hydroxycarbamimidoyl)-biphenyl-4-yl]-N-hydroxy-1H-benzimidazole-5-carboxamidine], the melting point was 281 to 283 °C (dec.).

`COc1ccc(-c2ccc(C(=N)NO)cc2)cc1-c1nc2cc(C(=N)NO)ccc2[nH]1` [Compound 19, N-hydroxy-2-[4′-(N-hydroxycarbamimidoyl)-4-methoxy-biphenyl-3-yl]-1H-benzimidazole-5-carboxamidine] showed a melting point greater than 340 °C.

On to `N=C(NO)c1ccc(-c2cccc(-c3nc4cc(C(=N)NO)ccc4[nH]3)c2O)cc1` [Compound 15, N-hydroxy-2-[2-hydroxy-4′-(N-hydroxycarbamimidoyl)-biphenyl-3-yl]-1H-benzimidazole-5-carboxamidine], for which the melting point was 322 to 325 °C (dec.).

(Values after patent US20050148646A1, “Dicationic triaryl analogs as anti-protozoan agents” (priority 2003, published 2005).)
